Source: article PMC4106271 (Journal of Medicinal Chemistry, 2014)

Test: Estimation of plasma levels after ip application (UHPLC-MS/MS)
Assay type: in vivo, mice
Conditions: mouse plasma
Description: At each time point, mice were euthanized and blood samples (500–800 μL) were collected and compiled into ethylenediaminetetraacetic acid (EDTA)-coated microtubes (1.6 mg of EDTA/sample) and centrifuged at 12 000 rpm for 5 min at 4 °C. Plasma samples were transferred into 1.5 mL tubes and stored at −80 °C until analysis.
Plasma calibrators were prepared by spiking corresponding stock solutions into a blank plasma sample.
Samples were vortexed at 1400 rpm for 10 min and then centrifuged at 13200g for 20 min at 10 °C. The supernatant was transferred into a 96-deep-well plate for drying under nitrogen gas flow (Evaporex EVX-96, Apricot Designs, Monrovia, CA) and redissolved in 200 μL of injection solvent (65% 10 mM ammonium formate + 0.05% formic acid, 35% acetonitrile + 0.05% formic acid) before MS/MS analysis.
Separation was performed at 55 °C on a Kinetex XB-C18 column, 100 × 2.1 mm, 1.7 μm particle size (Phenomenex; Torrance, CA); mobile phase of (A) 0.05% formic acid in 10 mM ammonium formate and (B) 0.05% formic acid in ACN, gradient 40% B for 1 min, linear gradient to reach 88% B after 5.3 min, shifted to 100% B for 1 min, and back to equilibrium condition of 40% B for 0.7 min; flow rate of 0.5 mL/min; total run time of 7 min. Sample injected volume was 1 μL and autosampler was set at 10 °C. Needle wash solution was MeOH/ACN/IPA/H2O (1:1:1:1 v/v/v/v). Flexible cube was set at a flow rate of 1 mL/min for 20 s.

Q: Which “mean plasma concn” value (1 mg/kg body weight ip) does the source give for `CCCN(CCC)C(=O)/C=C/C=C/c1ccc2c(c1)OCO2` [Compound 23, (2E,4E)-5-(1,3-benzodioxol-5-yl)-N,N-dipropyl-2,4-pentadienamide] here?
A: 60.6 ± 14.5 ng/mL

Q: And the “mean plasma concn” value (3 mg/kg body weight ip)?
A: 194.0 ± 50.2 ng/mL

Q: What about the “mean plasma concn” value (10 mg/kg body weight ip) of the same compound?
A: 593.0 ± 92.4 ng/mL
